{
  "source": "patent US6737059B1",
  "about": "“Methods of inhibiting inflammatory processes and alleviating symptoms associated with multiple sclerosis” (Board of Regents of the University Washington, priority 1992, dated 2004)",
  "key": {"[1]": {"tested_on": "white blood cell", "assay": "WBC counts in blood of EAE animals", "format": "in vivo, Macaca fascicularis", "conditions": "individual animals", "text": "The hematologic hallmarks of untreated EAE are a progressive leukocytosis and lymphopenia prior to the onset of clinical signs. The leukocytosis can represent as much as a four-fold increase in the number of circulating PMNC and no significant changes in the frequency or absolute numbers of monocytes, eosinophils, or basophils. Following successful treatments of EAE, the absolute numbers of lymphocytes and PMNC return, fairly soon after the initiation of treatment, to pre-sensitization levels. Thus, continuous monitoring of blood leukocytes provides a useful measure of disease progression which complements the clinical evaluation and magnetic resonance imaging.\nBlood was drawn on a weekly basis until the onset of clinical disease and then more frequently. One-half ml was sent to the hematology laboratory for WBC and differential counts. The results are set out in Table 3 below providing white blood cell number (×10^3) per mm^3 whole blood.\nTwo Macaca fascicularis monkeys were then involved in a study to preliminarily determine the ability of mAb 23F2G to alleviate EAE symptoms. The EAE induction procedures were essentially as in Example 1. Two animals, Nos. 89161 and 89186, sensitized to 1.0 mg of purified monkey basic protein and developed hyperacute hemorrhagic EAE 18 and 20 days post sensitization, respectively. Animal 89161 died within 12 hours of onset and before treatment with dexamethasone could be initiated. Animal 89186 was treated for a week with both dexamethasone (3 days at 4 mg/kg, 2 days at 2 mg/kg and 2 days at 1 mg/kg) and mAb 23F2G (7 days at 2 mg/kg, i.v.). The animal improved dramatically with complete resolution of paralysis three days after initiation of treatment. Lesions detected by MRI resolved four days after cessation of treatment and the animal improved dramatically with complete resolution of paralysis. Eight days following cessation of treatment, the animal relapsed and was sacrificed. […] The white blood cell count rose from 22.7×10^3 on the day of clinical onset to 82×10^3 /mm^3 on the last day of treatment."}, "[2]": {"tested_on": "Experimental Allergic Encephalomyelitis (EAE)", "assay": "EAE in macaques: clinical evaluation and survival", "format": "in vivo, Macaca fascicularis", "description": "Eighteen male monkeys Macaca fascicularis weighing 2-3 kg were sensitized to myelin basic protein (BP) by the intra dermal injection of 0.1 ml of an emulsion containing 5.0 mg of monkey BP and 0.5 mg of heat-killed M. tuberculosis. Each animal was obtained and housed by the Regional Primate Research Center at the University of Washington, Seattle. The Primate Center conforms to the National Institutes of Health Guide for the Care and Use of laboratory Animals. Ten days after sensitization to BP, each animal was outfitted with a femoral catheter and tether to facilitate blood sampling and the administration of treatments or anesthetics for magnetic resonance imaging (MRI). The animals were maintained on intravenous heparin (18 units/hour) to prevent blood clots from forming in the intra venous lines.\nThe animals were randomly admitted to specific treatment groups before they were sensitized to BP. This was done to schedule MRI and to prevent the severity of clinical signs at the onset from influencing the choice of therapy. Primate Center personnel, responsible for deciding when animals should be treated or sacrificed, were blinded regarding the treatment history of each animal. Table 1 below provides a statement of criteria for determination of clinical signs and grades of EAE in the animals.\nAt the onset of definite clinical signs (± to +) six EAE animals received a bolus injection of mAb 60.3 (2 mg/kg) and dexamethasone (4 mg/kg). […]. Sever acute EAE occurs in approximately 25 % of animals induced to develop EAE and is caused by edema in areas involving or impinging upon the brain stem or cerebral cortex. Following injection of the bolus, these six animals were treated by continuous infusion of mAb 60.3 (2 mg/kg/day) for seven days. […]. Six control EAE animals were treated only with dexamethasone, following the same protocol outlined above, and six additional controls were treated with continuous infusion of saline.\nAnimals that improved and/or stabilized as a result of therapy were sacrificed six weeks after the onset of clinical signs. Animals that experienced a clinical relapse (clinical signs ≧++) some time after the cessation of treatment and before six weeks had elapsed, were sacrificed shortly after the onset of the relapse. […] The statistical significance of differences in survival times in each treatment group was determined by two-tailed Student t analysis.\nDisease progression was monitored by a combination of clinical evaluation, blood analysis and magnetic resonance imaging. Clinical evaluations were performed twice daily. […]"}},
  "note": "Several values for one entry are separate records, joined by “and”; a condition that tells them apart may be missing. Identical values can stand only once.",
  "data": [
    {"smiles": "C[C@@H]1C[C@H]2[C@@H]3CCC4=CC(=O)C=C[C@]4(C)[C@@]3(F)[C@@H](O)C[C@]2(C)[C@@]1(O)C(=O)CO", "note": "[dexamethasone]", "values": [
      {"measurement": "white blood cell number", "setting": "[1]; Day 2", "result": "3.1 ×10^3 per mm^3 whole blood and 5.4 ×10^3 per mm^3 whole blood"},
      {"measurement": "white blood cell number", "setting": "[1]; Day 4", "result": "3.7 ×10^3 per mm^3 whole blood and 3.6 ×10^3 per mm^3 whole blood"},
      {"measurement": "white blood cell number", "setting": "[1]; Day 7 (end of treatment)", "result": "3.8 ×10^3 per mm^3 whole blood and 7.0 ×10^3 per mm^3 whole blood"},
      {"measurement": "white blood cell number", "setting": "[1]; Day 10", "result": "8.7 ×10^3 per mm^3 whole blood and 10.7 ×10^3 per mm^3 whole blood"},
      {"measurement": "white blood cell number", "setting": "[1]; Day 14", "result": "7.9 ×10^3 per mm^3 whole blood"},
      {"measurement": "white blood cell number", "setting": "[1]; Onset of clinical signs (start of treatment)", "result": "9.6 ×10^3 per mm^3 whole blood and 9.0 ×10^3 per mm^3 whole blood and 14.6 ×10^3 per mm^3 whole blood and 32.2 ×10^3 per mm^3 whole blood and 12.4 ×10^3 per mm^3 whole blood and 16.3 ×10^3 per mm^3 whole blood"},
      {"measurement": "white blood cell number", "setting": "[1]; Presens (baseline before sensitization)", "result": "4.7 ×10^3 per mm^3 whole blood and 6.1 ×10^3 per mm^3 whole blood and 6.7 ×10^3 per mm^3 whole blood and 13.5 ×10^3 per mm^3 whole blood and 8.9 ×10^3 per mm^3 whole blood and 14.1 ×10^3 per mm^3 whole blood"},
      {"measurement": "mean survival time", "setting": "[2]; after onset, group of six EAE macaques", "result": 7, "unit": "days"},
      {"measurement": "survival after onset (range of group)", "setting": "[2]; group of six EAE macaques", "result": "1 to 17", "unit": "days"},
      {"measurement": "Grade (severity of clinical signs at time of sacrifice)", "setting": "[2]; individual EAE macaques, 7-day treatment from onset of clinical signs, listed as dex alone", "result": "++"},
      {"measurement": "Survival (days of survival post-onset)", "setting": "[2]; individual EAE macaques, 7-day treatment from onset of clinical signs, stable animals sacrificed at six weeks (42 days), listed as dex alone", "result": "17 days and 1 days (2×) and 2 days and 13 days and 9 days"}
    ]}
  ]
}
